Columns and labels:
[1] = tested on: LCE3D; assay: Gene expression (qPCR) in NHEK: LCE3D; format: cell-based, human; details: 24 hours, 0.1 mM (Vitamin B12 0.03 mM), normalized to HPRT1, n.s. = not statistically significant
Experimental: (§1) Vitamin B2, 0.1 mM • 2. D-panthenol, 0.1 mM • 3. Pyridoxine HCl, 0.1 mM • 4. Vitamin B12, 0.03mM • 5. Niacinamide, 0.1 mM • 6. Folic Acid, 0.1 mM
(§2) All Test Materials were diluted in DermaLife K medium.
(§3) Fresh media replacements were performed every other day.
(§4) OpenArray format. […] Each gene was assayed in duplicate.
(§5) See the Endogenous Control Selection section for more details. Unpaired t-tests were carried out using StatMiner software.

[2] = tested on: KRT10; assay: Gene expression (qPCR) in NHEK: KRT10; format: cell-based, human; details: 24 hours, 0.1 mM (Vitamin B12 0.03 mM), normalized to HPRT1, n.s. = not statistically significant
Experimental: as §1, §2, §3, §4, §5

[3] = tested on: CALML5; assay: Gene expression (qPCR) in NHEK: CALML5; format: cell-based, human; details: 24 hours, 0.1 mM (Vitamin B12 0.03 mM), normalized to HPRT1, n.s. = not statistically significant
Experimental: as §1, §2, §3, §4, §5

[4] = tested on: hsa-miR-203; assay: microRNA expression (qPCR) in NHEK: hsa-miR-203; details: for Changes in microRNA Expression of hsa-miR-203 (linear fold-change): 24 hours, 0.1 mM (Vitamin B12 0.03 mM), vs Control group, normalized to RNU44, N=4, negative = decrease
Experimental: (§6) The study was conducted to understand how different vitamin B supplements influence microRNA and mRNA gene expression in keratinocytes. MicroRNAs are small, non-coding RNA molecules that function as negative regulators of gene expression. […] The current study was performed using normal human epidermal keratinocytes [NHEK].
as §2
(§7) An initial cytotoxicity screening was performed to evaluate a range of Test Material concentrations prior to the microRNA analysis. […] Pyridoxine HCl, 0.1 mM • 4. Vitamin B12, 0.03mM • 5. Niacinamide, 0.1 mM • 6.
(§8) Unpaired t-tests (p<0.05, N=4) were performed to compare each Test Material group to the Control group. […] An endogenous control microRNAs (RNU44) was used for normalization.
as §1, §3
(§9) The preamplification reaction was run for 12 cycles.
(§10) qPCR Processing: qPCR reactions were run using validated Taqman® MicroRNA assays in a Custom OpenArray format. […] Each microRNA was assayed in duplicate.
(§11) Unpaired t-tests were carried out using StatMiner software.

[5] = tested on: hsa-miR-720; assay: microRNA expression (qPCR) in NHEK: hsa-miR-720; details: 24 hours, 0.1 mM (Vitamin B12 0.03 mM), vs Control group, normalized to RNU44, N=4, negative = decrease
Experimental: as §6, §2, §7, §8, §1, §3, §9, §10, §11

[6] = tested on: TP63; assay: Gene expression (qPCR) in NHEK: TP63; details: for Linear Fold-Change Value, Each Group vs the Untreated Control: TP63: 24 hours, 0.1 mM (Vitamin B12 0.03 mM), normalized to HPRT1, n.s. = not statistically significant
Experimental: Cell Culture, Cytotoxicity Screening: NHEK [purchased from Lifeline Cell Technologies] were cultured and maintained at 37°C with 5% CO2 using DermaLife K medium according to the manufacturer's recommendations. Two days prior to treatment, NHEK were seeded at a density of -20,000 cells per cm^2 in 24-well plates. Cultures were approximately 75% confluent at the time of treatment.
Stock solutions and final working concentrations of each Test Material were prepared: The following treatment groups were included in the study (N=4): • 1. Vitamin B2, 0.1 mM • 2. D-panthenol, 0.1 mM • 3. Pyridoxine HCl, 0.1 mM • 4. Vitamin B12, 0.03mM • 5. Niacinamide, 0.1 mM • 6. Folic Acid, 0.1 mM
All Test Materials were diluted in DermaLife K medium. NHEK cultured in DermaLife K medium without added supplements served as the Control group.
Treatment and Maintenance of Cultures: Maintenance medium (DermaLife K) was removed from each culture well and replaced with 500 µL (for 24-well cytotoxicity screening) or 2.0 mL (for 6-well gene expression screening) prewarmed Test Medium. Following application of Test Media, the cultures were returned to the incubator at 37°C with 5 % CO2 for 24 hours.
Treatment and Collection of Cell Culture for Gene Expression: Cultures were seeded at a concentration of 20,000 cells/cm^2 in a 6-well plate and incubated for three days at 37°C with 5 % CO2. Fresh media replacements were performed every other day. On the day of treatment, maintenance medium was replaced with test medium. Following a 24 hour exposure, test medium was removed and cell lysis was performed through the addition of 700uL Qiazol lysis buffer (Qiagen) to each well. Cell lysates were immediately collected and stored at -80°C.
RNA Isolation: Total RNA was isolated from frozen cell lysates using a Qiagen miRNeasy Mini kit following the manufacturer's instructions for cultured cells. Total RNA concentration and purity were determined using a Nanodrop 2000 spectrophotometer.
OpenArray format. OpenArrays were run in a Life Technologies QuantStudio 12K Flex instrument. Each gene was assayed in duplicate.
Data Analysis: qPCR data was imported into RealTime StatMiner software v4.2 for statistical analysis using the relative quantitation (RQ) method. […] Unpaired t-tests were carried out using StatMiner software. Statistically significant changes in gene expression (p<0.05) are reported. Linear fold-change data for each subject was calculated using Microsoft Excel.For RQ values >1.0: Linear fold-change value = RQ value For RQ values < 1.0:Linear ford−change value = −1/RQ value [formula]
Statistical Data Analysis Using Statminer Software: qPCR data is typically expressed in log scale and then converted to a linear fold change value. A log10RQ value of 1.0 is equivalent to a 10-fold change in gene expression. A log10RQ value of 0.3 is equivalent to a 2-fold change in gene expression. The log10RQ values have been converted to linear fold change values to simplify data interpretation.

[7] = tested on: SPINK5; assay: Gene expression (qPCR) in NHEK: SPINK5; format: cell-based, human; details: 24 hours, 0.1 mM (Vitamin B12 0.03 mM), normalized to HPRT1, n.s. = not statistically significant
Experimental: as §1, §2, §3, §4, §5

[8] = tested on: KRT1; assay: Gene expression (qPCR) in NHEK: KRT1; format: cell-based, human; details: 24 hours, 0.1 mM (Vitamin B12 0.03 mM), normalized to HPRT1, n.s. = not statistically significant
Experimental: as §1, §2, §3, §4, §5

[9] = tested on: KLK7; assay: Gene expression (qPCR) in NHEK: KLK7; format: cell-based, human; details: 24 hours, 0.1 mM (Vitamin B12 0.03 mM), normalized to HPRT1, n.s. = not statistically significant
Experimental: as §1, §2, §3, §4, §5

Molecule | Linear Fold-Change Value, Each Group vs the Untreated Control: LCE3D [1] | Linear Fold-Change Value, Each Group vs the Untreated Control: KRT10 [2] | Linear Fold-Change Value, Each Group vs the Untreated Control: CALML5 [3] | Changes in microRNA Expression of hsa-miR-203 (linear fold-change) [4] | Changes in microRNA Expression of hsa-miR-720 (linear fold-change) [5] | Linear Fold-Change Value, Each Group vs the Untreated Control: TP63 [6] | Linear Fold-Change Value, Each Group vs the Untreated Control: SPINK5 [7] | Linear Fold-Change Value, Each Group vs the Untreated Control: KRT1 [8] | Linear Fold-Change Value, Each Group vs the Untreated Control: KLK7 [9] | fold induction at 100 µM ([4]; Homo sapiens, 24 h, read-out: Changes in microRNA Expression of hsa-miR-203 (linear fold-change)) | fold induction at 100 µM ([6]; Homo sapiens, 24 h, read-out: Linear Fold-Change Value, Each Group vs the Untreated Control: TP63)
CC(C)(CO)[C@@H](O)C(=O)NCCCO [D-Panthenol, (+)-(R)-2,4-Dihydroxy-N-(3-hydroxypropyl)-3,3-dimethylbutyramid] | -1.99 fold | -2.26 fold | -1.87 fold | -1.76 fold | -2.21 fold | 1.54 fold | -2.00 fold | -4.68 fold | -1.60 fold | – | –
Nc1nc2ncc(CNc3ccc(C(=O)N[C@@H](CCC(=O)O)C(=O)O)cc3)nc2c(=O)[nH]1 [Folic acid] | -1.72 fold | -1.73 fold | -1.67 fold | -1.46 fold | -1.64 fold | 1.43 fold | -1.79 fold | -3.27 fold | -1.41 fold | – | –
NC(=O)c1cccnc1 [Niacinamide, nicotinamide] | – | n.s. | – | – | – | – | n.s. | – | n.s. | 1.03 | 1.21
Cc1ncc(CO)c(CO)c1O.Cl [Pyridoxine HCl] | n.s. | -2.45 fold | -1.90 fold | -1.78 fold | -1.84 fold | 1.55 fold | -2.05 fold | -4.56 fold | -1.44 fold | – | –
Cc1cc2nc3c(=O)[nH]c(=O)nc-3n(C[C@H](O)[C@H](O)[C@H](O)CO)c2cc1C [Vitamin B2, riboflavin] | 1.60 fold | -2.50 fold | -1.24 fold | -1.96 fold | -1.93 fold | 1.34 fold | n.s. | -4.00 fold | -2.03 fold | – | –
cobalamin [Vitamin B12] | -1.65 fold | n.s. | -1.73 fold | -1.46 fold | -2.10 fold | – | -1.63 fold | -2.42 fold | n.s. | – | –
